Experimental data reported in patent US20240373891A1, “SWEETENER BLEND COMPRISING THAUMATIN AND MOGROSIDES” (NOMAD BIOSCIENCE GMBH, priority 2021, published 2024).

B1: Thaumatin II: protein of SEQ ID NO: 2, purity greater than 90%, recombinantly expressed in plants (protein, listed as Thaumatococcus daniellii)
chain: ATFEIVNRCSYTVWAAASKGDAALDAGGRQLNSGESWTINVEPGTKGGKIWARTDCYFDDSGRGICRTGDCGGLLQCKRFGRPPTTLAEFSLNQYGKDYIDISNIKGFNVPMDFSPTTRGCRGVRCAADIVGQCPAKLKAPGGGCNDACTVFQTSEYCCTTGKCGPTEYSRFFKRLCPDAFSYVLDKPTTVTCPGSSNYRVTFCPTA

Legend:
[1] = Round table qualitative assessment of quality of sweetness and undesirable attributes, scale 1-10; format: in vivo; settings: for Off taste (lower better) / Quality of sweetness (higher better): scale of 1-10, 6 panelists; for Quality of sweetness (higher better): 5% sucrose control
Description: • Round table evaluations were performed with 6 test panelists. Equal sweet 5 SEV concentrations in neutral pH water were made for Thaumatin II (purity greater than 90%), Mogroside V, and Siamenoside I. These equal sweet solutions were also mixed at 50% of Thaumatin II and 50% Mogroside V or Siamenoside I and compared to the individual components. All solutions were coded and blinded from panelists. Panelists were asked to provide a qualitative assessment on a scale of 1-10 of the quality of sweetness (10 being the highest quality of sweetness) and undesirable attributes (10 being most undesirable) of each solution using a 5% sucrose solution as a control.

[2] = Round table evaluation of sweetness intensity (SEV) against sucrose reference samples; format: in vivo; settings: mean of test panelists
Description: • Round table evaluations were performed with test panelists. Equal sweet 5 SEV concentrations in neutral pH water were made for Thaumatin II (purity greater than 90%), Mogroside V, and Siamenoside I. These equal sweet solutions were also mixed at 50% of Thaumatin II and 50% Mogroside V or Siamenoside I and compared to the individual components. The components of the test compositions are described in the below tables. The mixed compositions were calculated using the Beidler mixture equation for the sweeteners. The Beidler mixture equation for sweeteners is as follows: […]
The concentration of each component in the mixture in ppm is divided by SEV (c/R) and is plotted against concentration, c. The […]. The y-intercept of the linear regression multiplied by Rmaxis the half-maximal sweetness concentration, 1/K. Rmax and 1/K are the two parameters used in the Beidler equation. Mixtures were tasted in comparison to reference samples for the panelists to determine SEV values. References samples were 3%, 4%, 5%, 6%, 7%, and 8% sucrose in neutral pH water. The test samples were served in 2 ounce soufflé cups (approximately 60 ml) coded with 3-digit codes at room temperature. A two minute wait period between samples was enforced. Water and unsalted crackers was available for the panelists to clear their palates before and during testing. Results were collected for calculating approximate SEV level of each test sample. • The test products analyzed in this experiment are described below in Table 1.

[3] = summary of Example 2, compared with sucrose

| Molecule | Off taste (lower better) ([1]; 250 ppm in neutral pH water) | Quality of sweetness (higher better) ([1]; 250 ppm in neutral pH water) | Sweetness quality and off taste, in words ([1]; summary of Example 2) | Sweetness onset, in words [1, 3] | Sweetness intensity determined, SEV ([2]; 250 ppm in neutral pH water) | Off taste (lower better) ([1]; 7 ppm in neutral pH water) | Quality of sweetness (higher better) ([1]; 7 ppm in neutral pH water) | Sweet aftertaste, in words [1, 3] | Sweetness intensity determined, SEV ([2]; 7 ppm in neutral pH water) |
| --- | --- | --- | --- | --- | --- | --- | --- | --- | --- |
| C[C@H](CC[C@@H](O[C@@H]1O[C@H](CO[C@@H]2O[C@H](CO)[C@@H](O)[C@H](O)[C@H]2O)[C@@H](O)[C@H](O)[C@H]1O[C@@H]1O[C@H](CO)[C@@H](O)[C@H](O)[C@H]1O)C(C)(C)O)[C@H]1CC[C@@]2(C)[C@@H]3CC=C4[C@@H](CC[C@H](O[C@@H]5O[C@H](CO[C@@H]6O[C@H](CO)[C@@H](O)[C@H](O)[C@H]6O)[C@@H](O)[C@H](O)[C@H]5O)C4(C)C)[C@]3(C)[C@H](O)C[C@]12C [Mogroside V] | 3.3 | 7.5 | very mild off notes were detected | rapid | 5.3 SEV | – | – | – | – |
| C[C@H](CC[C@@H](O[C@@H]1O[C@H](CO[C@@H]2O[C@H](CO)[C@@H](O)[C@H](O)[C@H]2O)[C@@H](O)[C@H](O)[C@H]1O[C@@H]1O[C@H](CO)[C@@H](O)[C@H](O)[C@H]1O)C(C)(C)O)[C@H]1CC[C@@]2(C)[C@@H]3CC=C4[C@@H](CC[C@H](O[C@@H]5O[C@H](CO)[C@@H](O)[C@H](O)[C@H]5O)C4(C)C)[C@]3(C)[C@H](O)C[C@]12C [Siamenoside I] | 2.6 | 7.8 | very mild off notes were detected | rapid | 6.0 SEV | – | – | – | – |
| B1 | – | – | clean sweetness without any off taste | slightly delayed | – | 4.9 | 5.3 | lasted longer | 4.8 SEV |
